# Reference: ChEMBL document CHEMBL5537172 (J Med Chem, 2024)
# Activity calls are given as the source filed them. The rule behind the calls is not given here.
# What was measured:
# [1] = molecular target: 5-hydroxytryptamine receptor 2B (Homo sapiens, UniProt P41595); assay: Agonist activity at 5HT2B (unknown origin); type: toxicity
# [2] = Dissociation constant, pKa of compound; type: physicochemical
# [3] = Clearance in mouse at 1 mg/kg, iv measured upto 24 hrs by LC-MS/MS analysis; type: ADME, organism-based; conditions: in vivo
# [4] = Clearance in rat at 1 mg/kg, iv measured upto 24 hrs by LC-MS/MS analysis; type: ADME, organism-based; conditions: in vivo
# [5] = Clearance in dog at 0.3 mg/kg, iv measured upto 24 hrs by LC-MS/MS analysis; type: ADME, organism-based, Canis lupus familiaris; conditions: in vivo
# [6] = Volume of distribution at steady state in mouse at 1 mg/kg, iv measured upto 24 hrs by LC-MS/MS analysis; type: ADME, organism-based; conditions: in vivo, read-out: Vdss
# [7] = Volume of distribution at steady state in rat at 1 mg/kg, iv measured upto 24 hrs by LC-MS/MS analysis; type: ADME, organism-based; conditions: in vivo, read-out: Vdss
# [8] = Volume of distribution at steady state in dog at 0.3 mg/kg, iv measured upto 24 hrs by LC-MS/MS analysis; type: ADME, organism-based, Canis lupus familiaris; conditions: in vivo, read-out: Vdss
# [9] = Half life in mouse at 1 mg/kg, iv measured upto 24 hrs by LC-MS/MS analysis; type: ADME, organism-based; conditions: in vivo
# [10] = Half-life in rat at 1 mg/kg, iv measured upto 24 hrs by LC-MS/MS analysis; type: ADME, organism-based; conditions: in vivo
# [11] = Half-life in dog at 0.3 mg/kg, iv measured upto 24 hrs by LC-MS/MS analysis; type: ADME, organism-based, Canis lupus familiaris; conditions: in vivo
# [12] = AUCinfinity in mouse at 1 mg/kg, iv measured upto 24 hrs by LC-MS/MS analysis; type: ADME, organism-based; conditions: in vivo
# [13] = AUCinfinity in rat at 1 mg/kg, iv measured upto 24 hrs by LC-MS/MS analysis; type: ADME, organism-based; conditions: in vivo
# [14] = AUCinfinity in dog at 0.3 mg/kg, iv measured upto 24 hrs by LC-MS/MS analysis; type: ADME, organism-based, Canis lupus familiaris; conditions: in vivo
# Mus musculus = assay: In vivo inhibition of PKCdelta in mouse xenografted with human 92-1 cells assessed as reduction in phosphorylated levels at 15 to 72 mg/kg, po; type: functional, organism-based; conditions: dose lower […], dose upper […]
# 92-1 [15] = assay: Antitumor activity against human 92-1 cells xenografted in po dosed mouse assessed as tumor suppression administered twice daily; type: functional, organism-based; conditions: dose lower […], dose upper 75.0 mg/kg
# 92-1 [16] = assay: Antitumor activity against human 92-1 cells xenografted in mouse assessed as tumor suppression at 75 to 150 mg/kg, po administered twice daily; type: functional, organism-based; conditions: dose lower 75.0 mg/kg, dose upper […]
# [17] = Toxicity in mouse xenografted with human 92-1 cells assessed as body weight loss at 15 to 150 mg/kg, po bid; type: organism-based; conditions: in vivo, dose 15-150 mg/kg
# 92-1 [18] = assay: Antitumor activity against human 92-1 cells xenografted in mouse assessed as tumor suppression at 75 mg/kg, po administered twice daily measured after compound withdrawal; type: functional, organism-based
# [19] = molecular target: Protein kinase C eta type (Homo sapiens, UniProt P24723); assay: Inhibition of PKCeta (unknown origin)
# [20] = Toxicity in mouse xenografted with human 92-1 cells assessed as body weight loss at 75 to 150 mg/kg, po bid; type: organism-based; conditions: in vivo, dose 75-150 mg/kg
# [21] = molecular target: T1, Protein kinase C beta type (Homo sapiens, UniProt P05771); assay: Inhibition of PKCbeta1 (unknown origin)
# [22] = molecular target: T1, Protein kinase C beta type; assay: Inhibition of PKCbeta2 (unknown origin)
# [23] = molecular target: Protein kinase C gamma type (Homo sapiens, UniProt P05129); assay: Inhibition of PKCgamma (unknown origin)
# [24] = molecular target: Protein kinase C delta type (Homo sapiens, UniProt Q05655); assay: Inhibition of PKCdelta (unknown origin)
# [25] = molecular target: T2, Protein kinase C epsilon type (Homo sapiens, UniProt Q02156); assay: Inhibition of PKCepsilon (unknown origin)
# T2 sequence (Q02156 whole entry): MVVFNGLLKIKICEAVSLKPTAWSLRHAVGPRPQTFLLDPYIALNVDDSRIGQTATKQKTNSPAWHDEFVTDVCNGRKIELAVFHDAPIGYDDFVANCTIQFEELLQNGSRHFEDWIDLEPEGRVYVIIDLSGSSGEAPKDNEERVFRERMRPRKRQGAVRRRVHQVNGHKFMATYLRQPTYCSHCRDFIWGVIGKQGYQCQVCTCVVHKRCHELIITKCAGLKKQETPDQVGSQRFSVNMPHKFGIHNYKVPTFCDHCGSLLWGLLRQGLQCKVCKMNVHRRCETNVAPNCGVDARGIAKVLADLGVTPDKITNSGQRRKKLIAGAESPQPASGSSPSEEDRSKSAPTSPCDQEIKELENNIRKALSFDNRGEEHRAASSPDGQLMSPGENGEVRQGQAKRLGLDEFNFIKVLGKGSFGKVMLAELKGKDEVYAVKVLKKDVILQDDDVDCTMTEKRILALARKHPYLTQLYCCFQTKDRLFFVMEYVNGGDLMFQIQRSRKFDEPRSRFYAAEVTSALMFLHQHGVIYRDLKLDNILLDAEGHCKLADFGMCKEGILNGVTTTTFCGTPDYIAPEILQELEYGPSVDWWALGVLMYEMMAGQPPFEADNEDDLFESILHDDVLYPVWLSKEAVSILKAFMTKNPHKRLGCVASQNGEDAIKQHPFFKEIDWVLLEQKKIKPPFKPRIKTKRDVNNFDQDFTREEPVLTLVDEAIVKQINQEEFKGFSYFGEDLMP
# [26] = AUCinfinity in mouse at 10 mg/kg, po measured upto 24 hrs by LC-MS/MS analysis; type: ADME, organism-based; conditions: in vivo
# [27] = AUCinfinity in rat at 3 mg/kg, po measured upto 24 hrs by LC-MS/MS analysis; type: ADME, organism-based; conditions: in vivo
# [28] = AUCinfinity in dog at 3 mg/kg, po measured upto 24 hrs by LC-MS/MS analysis; type: ADME, organism-based, Canis lupus familiaris; conditions: in vivo
# [29] = Cmax in mouse at 10 mg/kg, po measured upto 24 hrs by LC-MS/MS analysis; type: ADME, organism-based; conditions: in vivo
# [30] = Cmax in rat at 3 mg/kg, po measured upto 24 hrs by LC-MS/MS analysis; type: ADME, organism-based; conditions: in vivo
# [31] = Cmax in dog at 3 mg/kg, po measured upto 24 hrs by LC-MS/MS analysis; type: ADME, organism-based, Canis lupus familiaris; conditions: in vivo
# [32] = Tmax in mouse at 10 mg/kg, po measured upto 24 hrs by LC-MS/MS analysis; type: ADME, organism-based; conditions: in vivo
# [33] = Tmax in rat at 3 mg/kg, po measured upto 24 hrs by LC-MS/MS analysis; type: ADME, organism-based; conditions: in vivo
# [34] = Tmax in dog at 3 mg/kg, po measured upto 24 hrs by LC-MS/MS analysis; type: ADME, organism-based, Canis lupus familiaris; conditions: in vivo
# [35] = Oral bioavailability in mouse at 10 mg/kg measured upto 24 hrs by LC-MS/MS analysis; type: ADME, organism-based; conditions: in vivo
# [36] = Oral bioavailability in rat at 3 mg/kg measured upto 24 hrs by LC-MS/MS analysis; type: ADME, organism-based; conditions: in vivo
# [37] = Oral bioavailability in dog at 3 mg/kg measured upto 24 hrs by LC-MS/MS analysis; type: ADME, organism-based, Canis lupus familiaris; conditions: in vivo
# cells = conditions: Homo sapiens, 92-1, 72 h
# SK-MEL-28 = assay: cells; conditions: Homo sapiens
# T1 sequence (P05771 whole entry): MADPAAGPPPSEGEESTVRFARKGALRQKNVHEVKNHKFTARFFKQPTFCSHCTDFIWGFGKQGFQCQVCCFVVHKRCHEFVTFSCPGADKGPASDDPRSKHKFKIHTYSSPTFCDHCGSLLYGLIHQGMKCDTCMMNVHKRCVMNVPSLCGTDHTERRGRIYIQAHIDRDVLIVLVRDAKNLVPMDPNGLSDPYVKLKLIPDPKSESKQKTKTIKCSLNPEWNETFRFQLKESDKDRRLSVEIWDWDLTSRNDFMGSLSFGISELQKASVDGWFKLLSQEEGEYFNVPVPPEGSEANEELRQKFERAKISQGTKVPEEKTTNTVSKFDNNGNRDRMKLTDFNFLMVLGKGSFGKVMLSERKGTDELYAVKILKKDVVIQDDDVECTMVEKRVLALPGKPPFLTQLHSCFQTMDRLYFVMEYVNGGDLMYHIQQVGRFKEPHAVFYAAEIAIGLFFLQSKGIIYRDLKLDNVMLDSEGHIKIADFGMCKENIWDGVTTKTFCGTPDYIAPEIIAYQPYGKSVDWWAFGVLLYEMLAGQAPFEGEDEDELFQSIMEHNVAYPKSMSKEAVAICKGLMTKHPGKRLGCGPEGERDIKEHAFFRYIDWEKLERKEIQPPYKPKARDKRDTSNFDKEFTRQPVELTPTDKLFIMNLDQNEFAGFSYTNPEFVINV
# 5-hydroxytryptamine receptor 2B, sequence (P41595 whole entry): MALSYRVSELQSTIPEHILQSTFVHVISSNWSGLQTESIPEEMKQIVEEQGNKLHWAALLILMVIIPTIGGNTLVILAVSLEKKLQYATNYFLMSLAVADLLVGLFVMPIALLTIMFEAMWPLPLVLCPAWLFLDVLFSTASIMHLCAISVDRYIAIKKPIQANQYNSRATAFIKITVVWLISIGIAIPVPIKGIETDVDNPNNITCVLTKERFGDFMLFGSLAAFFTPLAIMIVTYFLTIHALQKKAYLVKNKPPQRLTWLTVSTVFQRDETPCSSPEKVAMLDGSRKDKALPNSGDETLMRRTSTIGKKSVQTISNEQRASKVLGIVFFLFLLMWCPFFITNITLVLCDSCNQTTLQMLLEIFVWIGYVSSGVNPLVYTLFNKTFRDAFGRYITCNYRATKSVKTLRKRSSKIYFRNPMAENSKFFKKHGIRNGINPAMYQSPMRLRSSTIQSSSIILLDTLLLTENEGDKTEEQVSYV
# Protein kinase C delta type, sequence (Q05655 whole entry): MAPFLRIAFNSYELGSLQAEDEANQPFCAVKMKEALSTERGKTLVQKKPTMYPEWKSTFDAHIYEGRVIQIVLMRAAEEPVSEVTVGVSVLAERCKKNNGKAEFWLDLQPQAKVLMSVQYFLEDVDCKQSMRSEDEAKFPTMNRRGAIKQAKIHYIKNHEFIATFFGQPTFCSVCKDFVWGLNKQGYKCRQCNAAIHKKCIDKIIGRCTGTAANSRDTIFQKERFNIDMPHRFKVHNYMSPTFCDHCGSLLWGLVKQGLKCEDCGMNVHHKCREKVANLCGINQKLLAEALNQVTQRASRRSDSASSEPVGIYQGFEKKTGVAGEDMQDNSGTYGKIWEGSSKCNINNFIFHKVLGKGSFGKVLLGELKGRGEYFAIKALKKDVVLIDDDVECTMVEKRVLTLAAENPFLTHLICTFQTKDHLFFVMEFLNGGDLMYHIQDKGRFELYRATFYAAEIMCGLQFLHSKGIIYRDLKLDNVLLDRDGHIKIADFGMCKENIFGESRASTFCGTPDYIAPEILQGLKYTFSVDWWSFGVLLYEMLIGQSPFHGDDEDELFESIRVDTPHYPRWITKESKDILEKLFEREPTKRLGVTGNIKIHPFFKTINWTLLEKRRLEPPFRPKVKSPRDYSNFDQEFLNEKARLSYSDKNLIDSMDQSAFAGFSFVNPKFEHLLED
# Protein kinase C eta type, sequence (P24723 whole entry): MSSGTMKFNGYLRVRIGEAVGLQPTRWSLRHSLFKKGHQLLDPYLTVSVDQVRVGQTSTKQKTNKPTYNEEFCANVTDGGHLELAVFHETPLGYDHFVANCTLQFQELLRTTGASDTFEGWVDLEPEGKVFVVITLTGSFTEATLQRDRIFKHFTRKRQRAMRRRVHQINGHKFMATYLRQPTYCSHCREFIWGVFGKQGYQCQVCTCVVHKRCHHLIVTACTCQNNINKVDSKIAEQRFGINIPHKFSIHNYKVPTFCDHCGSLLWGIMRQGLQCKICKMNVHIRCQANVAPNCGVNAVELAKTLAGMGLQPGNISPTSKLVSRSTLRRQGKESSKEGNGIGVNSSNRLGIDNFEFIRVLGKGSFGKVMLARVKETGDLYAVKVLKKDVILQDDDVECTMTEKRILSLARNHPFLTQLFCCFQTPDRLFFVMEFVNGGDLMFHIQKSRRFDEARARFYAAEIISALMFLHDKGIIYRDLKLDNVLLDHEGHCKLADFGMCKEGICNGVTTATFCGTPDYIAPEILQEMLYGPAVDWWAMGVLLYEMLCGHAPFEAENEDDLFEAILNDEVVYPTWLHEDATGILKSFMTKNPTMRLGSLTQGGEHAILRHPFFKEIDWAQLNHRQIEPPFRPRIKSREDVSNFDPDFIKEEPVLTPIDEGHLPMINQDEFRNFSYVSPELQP
smiles,measurement,setting,value
CC1(N)CCN(c2cccnc2NC(=O)c2nc(-c3ncccc3C(F)(F)F)cnc2N)CC1 [DAROVASERTIB],EC50,[1],> 30000 nM
same,pKa,[2],9
same,clearance,[3],26 mL/min/kg
same,clearance,[4],24 mL/min/kg
same,clearance,[5],5 mL/min/kg
same,Vd,[6],1.6 L/kg
same,Vd,[7],3.4 L/kg
same,Vd,[8],1.4 L/kg
same,half-life,[9],1.1 h
same,half-life,[10],5.7 h
same,half-life,[11],4.4 h
same,AUC(0-inf),[12],1.36 µM·h
same,AUC(0-inf),[13],1.45 µM·h
same,AUC(0-inf),[14],2.59 µM·h
same,Activity,Mus musculus,Active
same,Activity,92-1 [15],Dose-Dependent Effect
same,Activity,92-1 [16],Active
same,Activity,[17],Non-Toxic
same,Activity,92-1 [18],inactive
same,IC50,[19],13.3 nM
same,Activity,[20],Non-Toxic
same,IC50,[21],66 nM
same,IC50,[22],58 nM
same,IC50,[23],109 nM
same,IC50,[24],6.9 nM
same,IC50,[25],2.9 nM
same,AUC(0-inf),[26],2.17 µM·h
same,AUC(0-inf),[27],2.39 µM·h
same,AUC(0-inf),[28],21.4 µM·h
same,Cmax,[29],667 nM
same,Cmax,[30],509 nM
same,Cmax,[31],6120 nM
same,Tmax,[32],2 h
same,Tmax,[33],0.3 h
same,Tmax,[34],0.5 h
same,bioavailability,[35],17%
same,bioavailability,[36],55%
same,bioavailability,[37],76%
same,EC50,cells,170 nM
same,IC50,SK-MEL-28,> 10000 nM
